Laboratory results taken from ChEMBL document CHEMBL1134851, “Apoptosis-inducing activity of synthetic intermediates of halichlorine” (Bioorg Med Chem Lett, 2002).

tested on: THP-1; assay: Cytotoxicity towards the acute monocytic leukemia cell line (THP-1); format: functional, cell-based; settings: Homo sapiens

SMILES | IC50 [µM]
CC(C)(C)[Si](OC[C@H]1CCC[C@]12CCC[C@@H]1CCCC(=O)N12)(c1ccccc1)c1ccccc1 | 71
CC(=O)N1[C@@H](CCO)CCC[C@]12CCC[C@@H]2CO[Si](c1ccccc1)(c1ccccc1)C(C)(C)C | 25
O=C1OC[C@H]2CCC[C@]23CCC[C@H](CCO)N13 | > 100
COC(=O)C1=CC[C@H]2CCC[C@]3(CCC[C@@H]3CO[Si](c3ccccc3)(c3ccccc3)C(C)(C)C)N2C1=O | 5
CC(C)(C)[Si](OC[C@H]1CCC[C@]12CCC[C@H](CCO)N2)(c1ccccc1)c1ccccc1 | 8.9
CC(C)(C)[Si](OC[C@H]1CCC[C@]12CCC[C@@H]1CCOC(=O)N12)(c1ccccc1)c1ccccc1 | 32
COC(=O)C1CC[C@H]2CCC[C@]3(CCC[C@@H]3CO[Si](c3ccccc3)(c3ccccc3)C(C)(C)C)N2C1=O (some centres not stated) | > 100
CC(C)(C)[Si](OC[C@H]1CCC[C@]12CCC[C@@H]1CCC(CO)CN12)(c1ccccc1)c1ccccc1 (some centres not stated) | 32
COC(=O)C1CC[C@H]2CCC[C@]3(CCC[C@@H]3CO)N2C1=O (some centres not stated) | > 100
O=C1OCC[C@H]2CCC[C@]3(CCC[C@@H]3CO)N12 | > 100
CC(C)(C)[Si](OC[C@H]1CCC[C@]12CCC[C@@H]1CCC(CO)C(=O)N12)(c1ccccc1)c1ccccc1 (some centres not stated) | 63
CCO/C(O)=C/C1=N[C@]2(CCC1)CCC[C@@H]2CO[Si](c1ccccc1)(c1ccccc1)C(C)(C)C | > 100
CCOC(=O)C[C@H]1CCC[C@]2(CCC[C@@H]2CO[Si](c2ccccc2)(c2ccccc2)C(C)(C)C)N1 | 40
CCOC(=O)C[C@@H]1CCC[C@@]23CCC[C@@H]2CON13 | > 100
CCO/C(O)=C/C1=N[C@]2(CCC1)CCC[C@@H]2CO | > 100
O=C1CCC[C@H]2CCC[C@]3(CCC[C@@H]3CO)N12 | > 100
N#CC1=CC[C@H]2CCC[C@]3(CCC[C@@H]3CO)N2C1=O | > 100
